Experimental data taken from US20070191324A1, “Methods for treatment or prophylaxis of aldosterone-mediated pathogenic effects in a subject using an epoxy-steroidal aldosterone antagonist” (priority 1999, published 2007).

Legend:
[1] = test system: saline-loaded adrenalectomized rats treated with aldosterone; test: Antimineralocorticoid activity in saline-loaded adrenalectomized rats treated with aldosterone (Example A-2); type: in vivo
Description: Methods: The antimineralocorticoid pharmacological activity was determined in saline-loaded adrenalectomized rats treated with aldosterone. […] Urinary sodium, potassium and water excretion were measured.

[2] = test system: uninephrectomized rats given 1% NaCl and aldosterone infusion; test: Volume expanded hypertensive rats, telemetry (Example A-4); type: in vivo; settings: 24 h average after three weeks
[3] = test system: saline-hydrated conscious dogs treated with aldosterone; test: Antimineralocorticoid action in saline-hydrated conscious dogs treated with aldosterone (Example A-2); type: in vivo; settings: aldosterone i.v. infusion; antagonist 10 mg/kg orally
[4] = test system: L-NAME/Angiotensin II/NaCl-treated rats; test: L-NAME/Angiotensin II/NaCl model of cardiac and renal injury (Example A-1); type: in vivo, Male Wistar rats; settings: Epl 100 mg/kg/day p.o., ALDO 40 μg/kg/day in adrenalectomized rats
Description: Animals. Male Wistar rats (n=44), weighing 200 to 225 grams, and obtained from Charles River Laboratories (Wilmington, Mass.) were used in the study. All animals were housed in a room lighted 12 hours per day at an ambient temperature of 22±1° C. Animals were allowed one week to recover after arrival and had free access to Purina Lab Chow 5001 (Ralston Purina Inc, St. Louis, Mo.) and tap water until the initiation of the experiment. After initiation of the protocols, animals in all groups were placed in individual metabolic cages, handled and weighed daily. Twenty-four hour fluid intake, food intake and urine output were measured daily. […] On day 14 of L-NAME treatment, animals were decapitated, trunk blood was collected into chilled tubes containing ethylene diamine tetraacetic acid and the heart and kidneys were removed, blotted dry and immediately weighed. […] Drugs. Eplerenone was supplied by G.D. Searle Pharmaceuticals (St. […] Dexamethasone was dissolved in sesame oil and administered as a single subcutaneous dose (12 μg/kg/day) every day. This dose of dexamethasone has been reported to, maintain normal weight gain, glomerular filtration rate, and fasting plasma glucose and insulin levels in adrenalectomized rats. Stanton, B., Giebisch G et al. J. Clin. Invest 1985 75:1317-1326. The experiment was concluded on day 14 of L-NAME treatment. […] (Hou J et al. J. Clin. Invest 1995 96:2469-2477. […] This lower dose induced lesions in stroke-prone spontaneously hypertensive rats. (Rocha R et al. […] Dexamethasone, aldosterone and L-NAME were purchased from Sigma Chemical Co. (St. Louis, Mo.). […] Surgical Procedure. […] Bilateral adrenalectomy was performed using a dorsolumbar approach, making separate incisions on each side. […] No post operative deaths occurred. Assays and Analyses. Systolic blood pressure was measured in awake animals by tail-cuff plethysmography using a Natsume KN-210 manometer and tachometer (Peninsula Laboratories Inc, Belmont, Calif.). Rats were warmed at 37° C. for 10 minutes and allowed to rest quietly in a Lucite chamber before measurement of blood pressure. Urinary protein concentration was determined in urine collected on the last day of the experiment using the sulfosalicylic acid turbidity method. […] Plasma aldosterone concentration was determined using a standard radioimmunoassay-kit from Diagnostic Products Co. (Los Angeles, Calif.). Plasma renin activity (“PRA”) was determined by radioimmunoassay detection of generated angiotensin I (DiaSorin Inc., Stillwater, Minn.). Histology. Hearts were stained with collagen specific dye Sirius red for determination of fibrosis as reported elsewhere. (Young M et al. Am. J. Physiol 1995 269:[…]-[…]). Interstitial collagen was determined using an automated image analyzer. The hearts were also stained with hematoxylin and eosin for light microscopic analysis. Two or three slices of different sections of the heart containing both right and left ventricle were analyzed from each animal. […] Glomerular damage, when present, was characterized as the presence of either segmental or global sclerosis with ischemic or thrombotic changes. Renal arterial and arteriolar damage was categorized as the presence of fibrinoid necrosis of the vascular wall. The renal arterial and arteriolar profiles presenting damage were counted and the number of injured vessels per section was divided by the number of glomeruli in the same section in order to normalize for the amount of tissue examined. […] Statistical analysis. Data were tested for normality using the Kolmogorov-Smirnov test. Systolic blood pressure was analyzed using repeated measures-analysis of variance for time and treatment group. One-way analysis of variance was used for normally distributed data with one grouping variable. Post-hoc analysis was performed using Newman Keuls multiple-comparison test. Data that were not normally distributed were analyzed with the Kruskal-Wallis test. […]

[5] = test system: saline-loaded adrenalectomized rats treated with aldosterone; test: Subcutaneous vs. oral eplerenone in saline-loaded adrenalectomized rats treated with aldosterone (Example A-3); type: in vivo
Description: Urinary sodium, potassium and water excretion were measured. The results are expressed as the ratio of excreted urinary sodium to potassium (Na/K)±SEM.

[6] = Dissolution rate and physical stability of solid state forms of eplerenone; type: physicochemical; settings: temperatures below the enantiotropic transition temperature, versus Form H
hypertensive patients = test: Eplerenone vs. amlodipine, ambulatory blood pressure monitoring, 16 weeks (Example D-12); type: in vivo, human; settings: in vivo
From the text: This was a multicenter, randomized, double-blind, active-controlled, placebo run-in, parallel group study. […] If symptomatic hypotension occurred at Week 2 or Weeks 4, 6, 8, or 12 and the patient was on the lowest dose level (Dose Level 1), the patient was to be withdrawn. Study assessments at protocol-specified timepoints included BP, heart rate, ABPM, Holter recording, clinical laboratory analyses including serum potassium levels, concomitant medications. Throughout the study, safety was assessed by routine clinical laboratory analyses, vital signs, physical examinations, 12-lead ECG, and monitoring of adverse events.

[7] = test system: older patients with systolic hypertension and/or widened pulse pressure; test: Eplerenone versus amlodipine in systolic hypertension in older people, 24 weeks (Examples A-19, D-8); type: in vivo, human
From the text: At Week 10 or thereafter, if SBP is =170 mmHg on two consecutive visits, one to three days apart, and the patient is on the maximum dose of study drug, he/she must be withdrawn. Patients will receive double-blind study medication for a total of 24 weeks. Table A-19A illustrates the above-described dosing scheme.
Heart rate, BP, serum potassium levels, concomitant medications and adverse events will be assessed at each visit. […] Special studies: collagen markers [aminoterminal propeptide of type III procollagen (PIIINP), 7S domain of type IV collagen (7SIVC), and type I collagen telopeptide (ICTP)], plasma […] (PAI-1), tissue plasminogen activator (t-PA), microalbuminuria, and at selected sites, Ambulatory Blood Pressure Monitoring (ABPM) and arterial compliance will be done at Weeks 0, 14, and 24 or at Final Visit. Quality of Life Questionnaires will be done at visit 2A (beginning of single blind) and Weeks 0, 14, and 24 or at Final Visit. DNA genotyping will be performed at baseline.
In older patients, elevated systolic BP and wide pulse pressure predict cardiovascular risk better than diastolic BP. Reduced vascular compliance and intraglomerular hypertension typically accompany isolated systolic hypertension in older people.
Changes in arterial compliance, measured by pulse-wave velocity, microalbuminuria, and adverse effects (AEs) were assessed at baseline and after 24 weeks of therapy.

[8] = after 24 weeks, titration-to-effect

Q: For `C[C@]12CCC(=O)C=C1CC[C@@H]1[C@@H]2[C@@H](O)C[C@]2(C=O)[C@@H](C(=O)CO)CC[C@@H]12` [Aldosterone], which “Urinary Na/K ± SEM” value ([1]; aldosterone alone) is on record?
A: The value was 1.68 ± 0.04.

Q: What about the “HR: Heart Rate” value ([2]; aldosterone & vehicle) of the same compound?
A: Its value is 346 ± 6 beats/min.

Q: And the “SAP: Systolic arterial pressure” value ([2]; aldosterone & vehicle)?
A: The value was 202 ± 7 mmHg.

Q: What about the “Na/K Ratio” value [3] of the same compound?
A: Its value is 0.09.

Q: What about the “Urinary Excretion Potassium” value [3] of the same compound?
A: Its value is 10.5 mmol/2 h.

Q: And the “Urinary Excretion Sodium” value [3]?
A: Its value is 1.0 mmol/2 h.

Q: What about the HW ([4]; end of experiment (day 14)) of the same compound?
A: Its HW is 951 ± 16 mg.

Q: What about the “HW/BW (cardiac hypertrophy index)” value ([4]; end of experiment (day 14)) of the same compound?
A: Its value is 3.57 ± .06 mg/g.

Q: And the SBP ([4]; end of experiment)?
A: The SBP was 192 ± 7 mmHg.

Q: What about the “Mean Na/K” value ([5]; Table A-3A, aldosterone alone) of the same compound?
A: The value was 1.68.

Q: What about the “Mean Na/K” value ([5]; Table A-3B, aldosterone alone) of the same compound?
A: Its value is 1.21.

Q: Which physical stability [6] does the source give for `COC(=O)[C@@H]1CC2=CC(=O)CC[C@]2(C)[C@@]23O[C@@H]2C[C@@]2(C)[C@@H](CC[C@@]24CCC(=O)O4)[C@H]13` [Form L] here?
A: Its physical stability is “greater physical stability”.

Q: Which results are given for `CCOC(=O)C1=C(COCCN)NC(C)=C(C(=O)OC)C1c1ccccc1Cl` (centres unmarked) [Amlodipine, reference compound]?
A: incidence of peripheral edema (hypertensive patients): greater incidence of peripheral edema; safety and tolerability (hypertensive patients): safe and well tolerated; Edema rates (%) ([7]; 24-week study): 25.2%; peripheral edema frequency ([7]; 24 weeks): 25.2%; reduction in pulse pressure ([7]; 24 weeks): −13.4 mmHg; symptoms with significant and clinically meaningful worsening in distress from Baseline (QoL) ([7]; 24 weeks): 21 symptoms; reduction in SBP ([7]; 24 weeks, EPL 50-200 mg QD, AML 2.5-10 mg QD): −20.1 mmHg; Pulse Pressure (change) [7, 8]: −13.4 ± 0.95 mmHg; Systolic BP (change) [7, 8]: −20.1 ± 1.13 mmHg; safety and tolerability ([7]; in vivo): safe and well tolerated; Δ microalbuminuria (%) ([7]; only for patients with baseline microalbuminuria (>30 mg/g), 24 weeks): −10.4%; reduction in UACR ([7]; patients with baseline microalbuminuria (>30 mg/g)): −3.3%

Q: What does the source list for `CC(=O)S[C@@H]1CC2=CC(=O)CC[C@]2(C)[C@H]2CC[C@@]3(C)[C@@H](CC[C@@]34CCC(=O)O4)[C@H]12` [Spironolactone]?
A: Urinary Na/K ± SEM ([1]; aldosterone & antagonist 1 mg/kg by gavage): 2.26 ± 0.25; Urinary Na/K ± SEM ([1]; aldosterone & antagonist 3 mg/kg by gavage): 2.90 ± 0.25; Urinary Na/K ± SEM ([1]; aldosterone & antagonist 10 mg/kg by gavage): 4.38 ± 0.26; HR: Heart Rate ([2]; aldosterone & antagonist 100 mg/kg s.c.): 338 ± 4 beats/min; HR: Heart Rate ([2]; aldosterone & antagonist 200 mg/kg s.c.): 336 ± 7 beats/min; Na/K Ratio [3]: 1.7; Urinary Excretion Potassium [3]: 7.4 ± 0.7 mmol/2 h; Urinary Excretion Sodium [3]: 12.6 ± 2 mmol/2 h; Mean Na/K ([5]; Table A-3A, aldosterone + antagonist 10 mg/100 g rat): 1.56; Mean Na/K ([5]; Table A-3A, aldosterone + antagonist 30 mg/100 g rat): 3.02; Mean Na/K ([5]; Table A-3A, aldosterone + antagonist 100 mg/100 g rat): 4.02
